Source: US20240408064A1, “RAS INHIBITORS, COMPOSITIONS AND METHODS OF USE THEREOF” (GENETOLEAD INC., priority 2021, published 2024)
Where “and” joins values, the source holds several entries; their conditions need not be identical. Identical values can stand only once.

Assays:
Format in all cases: binding
[1] = target: T1, wild type HRAS (Homo sapiens (Human), UniProt P01112); assay: NMR Kd, wild type HRAS
Description: (§1) ^1H/^15N Fast-HSQC experiments (Mori et al., Journal of Magnetic Resonance, Series B, Volume 108, Issue 1, July 1995, Pages 94-98) were recorded at a protein concentration of 50-100 μM.
(§2) Dissociation constants were obtained by monitoring changes in chemical shifts as a function of ligand concentration. The changes in chemical shifts (d) were calculated according to the following equation (Williamson, Progress in Nuclear Magnetic Resonance Spectroscopy, Volume 73, August 2013, Pages 1-16): d=√(1/2[δ_H^2+[…]]), Where δ are the changes in chemical shift in ppm for ^1H and ^15N and the correction factor (α) was set at 0.15.
(§3) ^1H 1D protein-observed experiments were recorded with 15-50 μM protein. The standard Bruker 1D ^1H sequence with excitation sculpting (zgesgp) was employed. A relaxation delay of 1 s was employed in order to use 256 scans while still keeping experimental time fairly short. Changes in protein chemical shift or peak intensity in the methyl region were monitored against compound concentration.
(§4) The activity of compounds of the invention regarding wild type HRAS was measured in the same as in Example 80. The results obtained with the compounds in the various assays described above are depicted in Table 2.

[2] = target: T2, KRAS^G12D-GDP (Homo sapiens (Human), UniProt P01116, G12D); assay: NMR Kd, KRAS^G12D-GDP; conditions: 1H 1D protein-observed NMR, read-out: 1H 1D PO NMR Kd
Description: as §1, §2, §3
(§5) The activity of compounds of the invention regarding KRAS^G12D-GDP was measured in the same as in Example 80. The results obtained with the compounds in the various assays described above are depicted in Table 23.

[3] = target: T3, HRas^G12V (Homo sapiens (Human), UniProt P01112, G12V); assay: 19F T2-CPMG NMR score
How it was run: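 In the T2-CPMG experiment, echo spacing was 1 ms and total delays ranged over eight values from 1 to 800 ms. Both scores come from 600 MHz NMR of 50 μM HRas G12V mixed with fragment pools at 240 μM each, in phosphate buffer pH 7.4 with NaCl, MgCl2 and TCEP-d16. Ligand-observed 19F spectra were recorded with 1H decoupling, 64 scans and a 5 s relaxation delay.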

[4] = target: T2, KRAS^G12D-GDP; assay: Overall activity in the various assays, KRAS^G12D-GDP
Description: as §5

[5] = target: T1, wild type HRAS; assay: 19F DLB score, wild type HRAS
Description: (§6) Since the fragment library was curated using phosphate buffer, 25 mM sodium phosphate pH 7.4, 150 mM NaCl, 5 mM MgCl2, 1 mM TCEP-d16, 10% D2O Fresh TCEP was used for experiments. Screening was performed using ^1H-decoupled 1D ^19F experiment Bruker experiment (zgfhigqn.2) with 64 scans and a relaxation delay of 5 seconds. 50 μM HRas^G12V and 240 μM of each fragment in pools (mixtures) were used.
(§7) Hit confirmation was performed using the same ^19F experiment as the screen. Ligand-observed 1D ^1H, protein-observed 1D ^1H, ^1H T2-CPMG as well as Saturation Transfer Difference (STD) experiments were also run on the same samples. Ligand-observed 1D ^1H was run using the standard Bruker sequence with excitation sculpting (zgesgp) with a relaxation delay of 10 seconds and 16 scans per spectrum. Protein-observed 1D ^1H was performed using the same sequence with a relaxation delay of 1 second and 256 scans in order to increase the signal-to-noise of the protein resonances, while keeping the experimental time relatively short. The ^1H T2-CPMG experiment employed a modified version of the Bruker 1D ^1H zgesgp experiment with the addition of a CPMG pulse train after the first 90° excitation pulse. Total duration for each spin echo was fixed at 1 ms (τ=500 μs), while the number of echoes in the pulse train was varied according to the total time (T). The number of scans for each spectrum was 4 and eight delay times were run on each sample, ranging from 1 ms to 800 ms.
as §4

[6] = target: T1, wild type HRAS; assay: 19F T2-CPMG score, wild type HRAS
Description: as §6, §7, §4

[7] = target: T3, HRas^G12V; assay: Dissociation constant by SPR
Description: SPR experiments were performed using the P4SPR from Affinité Instruments using Ni-NTA immobilization chips and his-tagged protein. Ni-NTA coated surfaces allow the immobilization of his-tagged proteins by chelation of histidine residues to the nickel ion. The sensor chip was inserted into a quad inlet model P4SPR (with 4 independent channels). Once the instrument was turned on, the baseline was stabilized by deionized (DI) water, followed by signal stabilization by the running buffer. His-tagged protein at 10 μg/mL was injected into all 4 channels of the P4SPR and was left to react for 20 min. The sensor chip was then washed with DI water. The lowest concentration of the ligand was injected into the channels of the P4SPR and was left to react for 10 min. The SPR shift was saved. Then, a higher concentration of the ligand was injected, and the sample injection steps were repeated until all 5 concentrations have been added. The KD of the binding interaction between the ligand and protein was determined by using the affinity curve fitting function in the P4SPR Control software.

T1 sequence (P01112 whole entry): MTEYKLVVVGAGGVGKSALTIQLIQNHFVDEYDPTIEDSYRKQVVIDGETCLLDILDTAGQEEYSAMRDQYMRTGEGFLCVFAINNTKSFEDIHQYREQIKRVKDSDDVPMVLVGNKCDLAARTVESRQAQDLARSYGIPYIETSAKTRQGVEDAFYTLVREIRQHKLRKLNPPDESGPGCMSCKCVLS
T3 sequence (P01112 1-166 G12V): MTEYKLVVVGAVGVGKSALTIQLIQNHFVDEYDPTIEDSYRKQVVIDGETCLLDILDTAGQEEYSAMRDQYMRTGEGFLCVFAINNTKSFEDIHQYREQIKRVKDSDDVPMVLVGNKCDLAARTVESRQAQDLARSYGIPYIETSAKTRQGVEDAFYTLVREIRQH

| Kd [1] | Kd [2] | 19F T2-CPMG Score [3] | Activity ranking on KRAS^G12D-GDP (in words) [4] | 19F DLB Score [5] | 19F T2-CPMG Score [6] | Kd [7] | SMILES |
| --- | --- | --- | --- | --- | --- | --- | --- |
|  | 1.9 to 4.03 mM | 32.13 | most active |  |  |  | O=C(Cc1c[nH]c2cc(F)ccc12)N1CCC(O)CC1 [Compound 10086] |
|  |  | 33.38 |  | 4.57 | <LLOQ |  | CN(C)CCOc1cccc(NC(=O)Cc2c[nH]c3cc(F)ccc23)c1 [Compound 10095, N-(3-(2-(dimethylamino)ethoxy)phenyl)-2-(6-fluoro-1H-indol-3-yl)acetamide] |
|  |  | 38.49 |  | 7.61 | <LLOQ | 31 µM | CN(C)CC(=O)Nc1cccc(NC(=O)Cc2c[nH]c3cc(F)ccc23)c1 [compound 10097] |

| SMILES | Kd [1] | Kd [2] | 19F T2-CPMG Score [3] | Activity ranking on KRAS^G12D-GDP (in words) [4] | 19F DLB Score [5] | 19F T2-CPMG Score [6] | Kd [7] |
| --- | --- | --- | --- | --- | --- | --- | --- |
| CC(C)N1CCC(NC(=O)Cc2c[nH]c3cc(F)ccc23)CC1 [Compound 10018] | 5.18 mM | 5.02 to 6.25 mM | 10.62 and 11.88 and 18.24 and 9.37 and 15.13 | most active |  |  |  |
